Experimental data reported in paper PMC8502973 (Frontiers in Physiology, 2021).
Entries after “also recorded” stand apart in the source; their conditions may differ.

Experiments:
[1] = Dose escalation: water intake; format: in vivo, male DIO Sprague Dawley rats; conditions: sc once daily; ASK1476 F(1.80, 12.61) = 3.15, p = 0.082; OXT F(1.68, 11.72) = 4.05, p = 0.086
Protocol: (§1) Sprague Dawley rats (male, ∼4 weeks of age, 51–75 g body weight) were switched from standard chow to a high fat diet (Research Diets, Diet # D12492, 60, 20, 20%kcal from fat, protein, and carbohydrate, respectively, 5.21 kcal/g; stored at −20°C). The rats were maintained on this diet for approximately 15 weeks prior to the start of experiments to develop a diet-induced overweight (DIO) model. Animals were individually housed on a 12 h/12 h light/dark cycle (lights on at 04:00 h) in a temperature (23°C) and humidity (mean 50%, SD 10%) controlled room. All body weight measurements were made just prior to the start of the dark cycle.
(§2) Sequential rounds of a 3-day baseline phase (vehicle treated), a 3-day treatment phase, and a washout phase (2–5 days as necessary) were tested. […] High fat diet was accessible to the rats from all but the last 6 h of the light cycle and water was provided ad libitum. This daily period of food restriction was used to prevent incidental feeding in the event animals were disturbed from their sleep by noise from surrounding rooms. […] Food and kaolin intake were continuously recorded using AccuScan DietMax (currently OmniTech Electronics, Inc., Diet System) cages. […] Body weight was recorded, and treatment injections were administered just prior to the start of the dark cycle.

Toxicity / mortality = format: in vivo; conditions: rat, in vivo, sc
[2] = 2015, cited from earlier work
Excerpt: OXT is a downstream target of the adipose tissue hormone leptin.

[3] = Long-term (28-day) drug intervention: body weight; format: in vivo, male DIO Sprague Dawley rats
Protocol: as §1
(§3) Male DIO Sprague Dawley rats (n = 24) were generated as outlined above and were 644.5 g (50 g) at the start of drug treatment. The animals were divided into three treatment groups (n = 8 each) balanced for body weight, body weight gain during baseline, food intake, and Lee Index [body weight^(1/3)/snout to anus length (mm)] ([Lee, 1929]; [Simson and Gold, 1982]) as an indicator of adiposity (Figure 2). In a subset of the animals (n = 5 per group, balanced for prior mentioned criteria), Mini-Mitter transponders (PDT-4000 E-Mitter, Respironics Inc.) were implanted posterior to the left scapula at least 9 days prior to start of baseline measures to ensure sufficient recovery time. Body temperature and gross motor activity were continuously recorded via these transponders. […] High fat diet and water were provided ad libitum and intake was recorded with daily hopper and water bottle weighs at time of body weight assessment just prior to drug administration. Blood samples were taken at start of intervention by tail vein bleeding and via cardiac puncture under an isoflurane induced surgical plane of anesthesia at euthanasia. Animals were euthanized on treatment day 29, 4 h after receiving a dose of their assigned treatment, via decapitation under isoflurane anesthesia immediately following blood draw. Body composition was assessed on carcasses.
From treatment day 8 on the doses were maintained to assess long-term efficacy at a therapeutically meaningful dose.

[4] = design: method as in Freeman et al., 2016; conditions: peripheral administration, macaques; ref Freeman et al., 2016; cited from earlier work
[5] = cited from earlier work
Excerpt: (§4) Finally, the potential for toxic side effects upon chronic administration at high concentration and/or f ...

hV1aR = system: hV1aR; design: method as in 3 sources, one per row (each row's own in cited_ref): ref Wiśniewski et al. (2014) ||| ref Modi et al. (2016) ||| ref Modi et al., 2016; conditions: OXT; ref Wiśniewski et al. (2014); cited from earlier work
[6] = Dose escalation: body weight change; format: in vivo, male DIO Sprague Dawley rats; conditions: sc once daily
Protocol: as §1, §2

[7] = Long-term: body composition of carcasses by quantitative magnetic resonance; format: in vivo, male DIO Sprague Dawley rats
Excerpt: as §3
Body composition (total and relative fat mass, lean mass, and water content) was assessed on carcasses from the long-term drug intervention study using Quantitative Magnetic Resonance (EchoMRI 4-in-1, Echo Medical Systems, Houston, TX) at the Rodent Metabolic and Behavioral Phenotyping Core at the VA Puget Sound Health Care System (VAPSHCS).

[8] = Dose escalation: kaolin intake (pica, nausea/visceral malaise); format: in vivo, male DIO Sprague Dawley rats
Protocol: as §1
(§5) Sequential rounds of a 3-day baseline phase (vehicle treated), a 3-day treatment phase, and a washout phase (2–5 days as necessary) were tested. […] High fat diet was accessible to the rats from all but the last 6 h of the light cycle and water was provided ad libitum. This daily period of food restriction was used to prevent incidental feeding in the event animals were disturbed from their sleep by noise from surrounding rooms. To assess a potential pica response (nausea/visceral malaise) in animals, powdered kaolin (Sigma-Aldrich, K1512) was made available on drug treatment days with a restriction period similar to the high fat diet. Prior to the first experiment, rats were provided access to kaolin for 2 days so that they could familiarize themselves with it prior to start of testing. Food and kaolin intake were continuously recorded using AccuScan DietMax (currently OmniTech Electronics, Inc., Diet System) cages. The high fat diet was compressed in the food tray to form a solid block of food. This allows for more accurate meal size measurements by preventing the animals from removing entire pellets at time. All food and kaolin intake data were binned into 15-min intervals for analysis and the start of the 24-h food intake period aligned to the lights turning off in the animal room. Body weight was recorded, and treatment injections were administered just prior to the start of the dark cycle.

[9] = Dose escalation: food intake; format: in vivo, male DIO Sprague Dawley rats
Protocol: as §1, §5

[10] = Long-term: gross motor activity and body temperature (Mini-Mitter transponders); format: in vivo, male DIO Sprague Dawley rats; conditions: 28-day study, n = 5 per group, first 12 days analysed
Excerpt: as §3
For comparisons of mean longitudinal changes in body temperature and activity, only the first 12 days of treatment, divided into three 4-day phases, were included in the analysis. These 4-day phases allowed for analyses to consider the ASK1476 dose titration.

hOXTR = system: hOXTR; design: method as in 2 sources, one per row (each row's own in cited_ref): ref Wiśniewski et al. (2014) ||| ref Modi et al. (2016); conditions: OXT; ref Wiśniewski et al. (2014); cited from earlier work
[11] = system: OXTR compared with the V1aR; design: method as in Akerlund et al., 1999; conditions: ref Akerlund et al., 1999; cited from earlier work
Excerpt: as §4

oxytocin [OXT]
water intake [1]: not significantly affected | adverse effects or tolerability issues (Toxicity / mortality): No adverse effects or tolerability issues were observed | food intake, energy expenditure and weight gain ([2]; peripheral administration, diet-induced and genetically obese rodent models, ref Maejima et al., 2011, Morton et al., 2012, Blevins et al.): reduces food intake, enhances energy expenditure, and prevents or reduces weight gain | energy expenditure / weight loss in diet-induced obese non-human primates ([2]; ref Blevins et al.): elicits weight loss, in part, by increasing energy expenditure | compensatory weight gain / weight regain following nadir ([3]; 28-d treatment): significantly lower rates of weight regain following body weight nadir | average day of body weight nadir ([3]; 28-day treatment, sc once daily): 14 days | daily percent change of body weight from nadir, mean difference vs. vehicle ([3]; OXT: 95% CI −0.23 to 0.01, p = 0.069): −0.11% | Body weight, post-treatment ([3]; after 28-day Tx, ASK1476 to 120 or OXT 600 nmol/kg/d sc, n = 8, Mean ± SD, oxytocin * p < 0.05 vs vehicle, ANOVA p 0.041): 615.143.2* g | reduction in body weight, OXT 600 nmol/kg/d compared with ASK1476 30 and 60 nmol/kg ([3]; long-term study, titration phases): significantly greater reductions in body weight | average daily individual percent change of body weight from nadir to end of treatment ([3]; mean, SD 0.04% ASK1476, 0.16% OXT, vehicle 0.34% (SD 0.05%)): 0.23% | weight stability during final 20 days ([3]; treatment days 9-28): remained weight stable | entry into the CSF from the periphery [4]: only small amounts | half-life in vivo [5]: ~5 min | EC50 (hV1aR): 10 nM | body weight gain across dosing spectrum ([6]; ASK1476 6-300 nmol/kg, OXT 20-1200 nmol/kg, 3 days): Significant reductions in body weight gain; also recorded: effective in reducing body weight gain across the dose spectrum | interaction of treatment and dose on body weight change ([6]; ASK1476 F(2.08, 15.54) = 9.50, p = 0.002, OXT F(2.40, 16.79) = 16.98, p < 0.0001): significant interaction | fat mass, difference vs vehicle ([7]; OXT 600 nmol/kg/d 28 days, 95% CI −97.2 to 7.2, p = 0.103): -45.0 g | lean mass, difference vs vehicle ([7]; OXT 600 nmol/kg/d 28 days, 95% CU −109.8 to −5.4, p = 0.028): -57.6 g | Lean mass, post-treatment ([7]; after 28-day Tx, n = 8, Mean ± SD, oxytocin * p < 0.05 vs vehicle, ANOVA p 0.015): 416.531.9* g | visceral malaise signal (notably high kaolin intake in a few animals) ([8]; ASK1476 dosing spectrum): not observed in any | kaolin intake at low doses ([8]; low doses, sc once daily): below 4 g/d | kaolin intake, effect of treatment ([8]; sc once daily, ASK1476 6-300 nmol/kg F(1.80, 12.59) = 2.26, p = 0.148, OXT 20-1200 nmol/kg F(1.51, 10.52) = 1.73, p = 0.223): no significant effect of treatment | reduction in 3-day averaged food intake ([9]; OXT 20 nmol/kg sc once daily vs 3-day saline baseline, n = 8, 95% CI −19.40 to −2.94, p = 0.0106): -11.17 kcal/day | lowest dose with significant reduction in 3-day averaged food intake ([9]; sc once daily, 3 days, n = 8): 20 nmol/kg | interaction of treatment and dose on 3-day averaged food intake ([9]; sc once daily, ASK1476 F(2.84, 19.86) = 6.52, p = 0.003, OXT F(1.89, 13.25) = 9.49, p = 0.003): significant interaction | locomotor activity or body temperature [10]: did not find any evidence | locomotor activity or body temperature ([10]; listed as oxytocin): no effects were detected on locomotor activity or body temperature | EC50 (hOXTR): 2.3 nM | affinity for the OXTR compared with the V1aR [11]: fivefold greater affinity
